Measurements published in EPA's ToxValDB 9.5 (doi:10.2903/j.efsa.2016.4504).

Key:
Aphidius rhopalosiphi = experiment: LR50; higher = less toxic; conditions: not reported; mortality
Apis mellifera = conditions: acute, mortality
Folsomia candida = conditions: chronic/long-term
Neomysis kadiakensis = conditions: chronic/long-term; duration: 32 days; reproduction
Canidae = conditions: chronic; oral; Dog Other; gross pathology
Colinus virginianus = conditions: oral; for LEC: diet
[1] = short-term, duration: 28 days, oral, diet, no effects

Structure (SMILES) | NOAEL (Rattus norvegicus; [1]) [mg/kg-day] | LR50 (Aphidius rhopalosiphi) [g/ha] | LD50 (Rattus norvegicus; acute, oral, mortality) [mg/kg] | NOAEL (Rattus norvegicus; reproduction developmental, other) [mg/kg-day] | LC50 (Cyprinodon variegatus; acute, duration: 96 hours, mortality) [µg/mL] | NOEC (Cyprinodon variegatus; chronic/long-term, duration: 35 days, growth) [mg/L] | LC50 (Tagia sp.; acute) [mg/kg] | NOEC (Tagia sp.; chronic/long-term) [mg/kg] | LD50 (Apis mellifera; dermal) [µg/piece] | LD50 (Apis mellifera; oral, unspecified) [µg/piece] | NOEC (Folsomia candida) [mg/kg] | NOEC (Neomysis kadiakensis) [mg/L] | NOAEL (Canidae) [mg/kg-day] | LEL (Colinus virginianus; acute) [mg/kg-day] | LEC (Colinus virginianus; chronic) [mg/kg-day] | LEC (Colinus virginianus; short-term) [mg/kg-day]
O=C(O)c1cc(C(F)(F)F)nn1[C@@H]1O[C@H](CO)[C@@H](O)[C@H](O)[C@H]1O | 1160 | – | – | – | – | – | – | – | – | – | – | – | – | – | – | –
Cc1cc(C(F)(F)F)nn1CC(=O)N1CCC(c2nc(C3=NOC(c4c(F)cccc4F)C3)cs2)CC1 (configuration not stated) [Oxathiapiprolin] | – | 116 | > 5000 | 86.4 | > 0.65 | 0.34 | > 500 | 15.4 | > 100 | > 40.3 | 12.5 | 0.058 | 13.6 | > 4250 | 107 | > 1280
O=C(O)c1cc(C(F)(F)F)[nH]n1 [5-(Trifluoromethyl)-1H-pyrazole-3-carboxylic acid] | 1160 | – | – | – | – | – | – | – | – | – | – | – | – | – | – | –
